Reference: patent publication US20260176320A1, “MODULATORS OF G-PROTEIN COUPLED RECEPTORS” (priority 2018, published 2026)
Where two headings read alike, the source gives them in different places.

Experiments:
GLP-1R = GLP-1R (Homo sapiens, UniProt P43220); assay: HitHunter cAMP assay (GLP-1R); assay type: cell-based; details: cAMP; for Emax: read-out: (Emax) GLP-1R
Protocol: (§1) Suspension cells were harvested and resuspended in 1×HBSS (+10 mM HEPES, 625 μM IBMX, 0.2% BSA) according to the following procedure: 5 μL of 2× cell suspension+1× antibody were added to each well, where the optimal cell density was 10,000 cells per well in a low volume 384-well plate. Agonist serial dilutions in a separate 384 well dilution plate in a 22-point series of 2× dilutions of agonist in DMSO were performed as follows. 80 μL of the highest concentration of Agonist/DMSO was added to well No. 1. 40 μL was removed from well No. 1 and added it to well No. 2, followed by gentle mixing. […] This process was repeated until well No. 22. Additional serial dilutions for additional agonists were set up in a similar manner. 50 nL of each 2× agonist serial dilution was added in duplicate to the designated agonist rows of the assay plate using the Labcyte ECHO. Assay plate was incubated for 30 minutes at room temperature. Following agonist incubation, 5 μL of cAMP Antibody Reagent was added to all wells. […] Plates were spun down briefly. Assay plate was incubated for 1 hour at room temperature in the dark for the immunocompetition reaction to occur. […] Plates were spun down briefly. Assay plate was incubated O/N at room temperature in the dark. Samples were read on Tecan i-control plate reader using luminescence mode with 300 ms integration time. Data analysis was performed using GraphPad Prism.

GIP-R = biological target: T1, GIP-R (Homo sapiens, UniProt P48546); assay: HitHunter cAMP assay (GIP-R); assay type: cell-based; details: cAMP; for EC50: EC50 GIP-R/nM; for Emax: read-out: (Emax) GIP-R
T1 sequence (P48546 22-466): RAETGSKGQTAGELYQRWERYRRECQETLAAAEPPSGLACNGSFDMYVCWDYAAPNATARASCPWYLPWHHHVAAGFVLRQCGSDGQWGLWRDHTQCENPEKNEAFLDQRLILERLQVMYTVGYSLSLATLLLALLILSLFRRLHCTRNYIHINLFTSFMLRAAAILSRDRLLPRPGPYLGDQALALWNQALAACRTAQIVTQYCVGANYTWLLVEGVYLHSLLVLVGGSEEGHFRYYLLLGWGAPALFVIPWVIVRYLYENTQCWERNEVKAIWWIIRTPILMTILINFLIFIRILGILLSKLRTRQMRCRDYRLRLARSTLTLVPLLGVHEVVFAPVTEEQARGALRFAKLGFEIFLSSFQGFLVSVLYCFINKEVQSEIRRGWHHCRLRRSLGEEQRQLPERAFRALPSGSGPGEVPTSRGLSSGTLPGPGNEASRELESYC
Protocol: as §1

Chain of GLP-1R (P43220 24-463): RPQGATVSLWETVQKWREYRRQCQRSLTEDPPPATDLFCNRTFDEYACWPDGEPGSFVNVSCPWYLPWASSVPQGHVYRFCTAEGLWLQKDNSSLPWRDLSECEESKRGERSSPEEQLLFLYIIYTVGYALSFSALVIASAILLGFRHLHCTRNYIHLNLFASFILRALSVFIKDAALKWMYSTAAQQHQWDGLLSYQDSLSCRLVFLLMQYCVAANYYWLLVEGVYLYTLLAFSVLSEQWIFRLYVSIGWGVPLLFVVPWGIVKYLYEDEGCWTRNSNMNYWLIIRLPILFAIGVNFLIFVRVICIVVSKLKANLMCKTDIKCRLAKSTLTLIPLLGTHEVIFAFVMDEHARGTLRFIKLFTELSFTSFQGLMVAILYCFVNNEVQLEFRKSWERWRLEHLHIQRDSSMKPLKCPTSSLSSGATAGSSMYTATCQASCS

SMILES	EC50 (GLP-1R; EC50 GLP-1R/nM, Table 3A)	Emax (GLP-1R; Table 3A)	EC50 (GIP-R; Table 3A)	Emax (GIP-R; Table 3A)	EC50 (GLP-1R; EC50 GLP-1R/nM, Table 3)	Emax (GLP-1R; Table 3)	EC50 (GIP-R; Table 3)	Emax (GIP-R; Table 3)	EC50 (GLP-1R; read-out: EC50 GLP-1R/nM, Table 3)	EC50 (GLP-1R; read-out: EC50 GLP-1R/nM, Table 3A)	EC50 (GLP-1R; Table 3, read-out: EC50 GLP-1R/nM)	EC50 (GLP-1R; Table 3A, read-out: EC50 GLP-1R/nM)	Emax at 1 µM (GIP-R; read-out: (Emax) GIP-R at 1 μM, Table 3, at 1 μM)
CCCCCCCCCCCCCCCC(=O)N[C@@H](CCC(=O)NCCCC[C@H](NC(=O)[C@H](CO)NC(=O)[C@@H]1CCCN1C(=O)[C@@H]1CCCN1C(=O)[C@@H]1CCCN1C(=O)[C@H](C)NC(=O)CNC(=O)[C@H](CO)NC(=O)[C@H](CO)NC(=O)[C@@H]1CCCN1C(=O)CNC(=O)CNC(=O)[C@H](C)NC(=O)[C@H](CC(C)C)NC(=O)[C@H](CC(C)C)NC(=O)[C@H](Cc1c[nH]c2ccccc12)NC(=O)[C@H](CC(N)=O)NC(=O)[C@@H](NC(=O)[C@H](Cc1ccccc1)NC(=O)[C@H](CCC(=O)O)NC(=O)C(C)(C)NC(=O)[C@H](C)NC(=O)[C@H](C)NC(=O)[C@H](CCC(N)=O)NC(=O)[C@H](CCCCN)NC(=O)[C@H](CC(=O)O)NC(=O)[C@H](CC(C)C)NC(=O)[C@H](Cc1ccc(O)cc1)NC(=O)[C@@H](NC(=O)[C@H](CO)NC(=O)[C@H](Cc1ccc(O)cc1)NC(=O)[C@H](CC(=O)O)NC(=O)[C@H](CO)NC(=O)[C@@H](NC(=O)[C@H](Cc1ccccc1)NC(=O)[C@@H](NC(=O)CNC(=O)[C@H](CCC(=O)O)NC(=O)CSCC(=O)NCCN1C(=O)[C@H]2CC[C@@H]1C2)[C@@H](C)O)[C@@H](C)O)[C@@H](C)CC)C(C)C)C(N)=O)C(=O)O [Compound 289]	< 0.1 nM	100%	10 to 100 nM	20%									
CCCCCCCCCCCCCCCC(=O)N[C@@H](CCC(=O)NCCCC[C@H](NC(=O)[C@H](CO)NC(=O)[C@@H]1CCCN1C(=O)[C@@H]1CCCN1C(=O)[C@@H]1CCCN1C(=O)[C@H](C)NC(=O)CNC(=O)[C@H](CO)NC(=O)[C@H](CO)NC(=O)[C@@H]1CCCN1C(=O)CNC(=O)CNC(=O)[C@H](C)NC(=O)[C@H](CC(C)C)NC(=O)[C@H](CC(C)C)NC(=O)[C@H](Cc1c[nH]c2ccccc12)NC(=O)[C@H](CC(N)=O)NC(=O)[C@@H](NC(=O)[C@H](Cc1ccccc1)NC(=O)[C@H](CCC(=O)O)NC(=O)C(C)(C)NC(=O)[C@H](C)NC(=O)[C@H](C)NC(=O)[C@H](CCC(N)=O)NC(=O)[C@H](CCCCN)NC(=O)[C@H](CC(=O)O)NC(=O)[C@H](CC(C)C)NC(=O)[C@H](Cc1ccc(O)cc1)NC(=O)[C@@H](NC(=O)[C@H](CO)NC(=O)[C@H](Cc1ccc(O)cc1)NC(=O)[C@H](CC(=O)O)NC(=O)[C@H](CO)NC(=O)[C@@H](NC(=O)[C@H](Cc1ccccc1)NC(=O)[C@@H](NC(=O)CNC(=O)[C@H](CCC(=O)O)NC(=O)CSCC(=O)NCCN1C(=O)SC(C)C1=O)[C@@H](C)O)[C@@H](C)O)[C@@H](C)CC)C(C)C)C(N)=O)C(=O)O (mixture of isomers) [Compound 90]	1 to 10 nM	108%	1 to 10 nM	74%	1 to 10 nM	108%	1 to 10 nM	74%					
CCCCCCCCCCCCCCCC(=O)N[C@@H](CCC(=O)NCCCC[C@H](NC(=O)[C@H](CO)NC(=O)[C@@H]1CCCN1C(=O)[C@@H]1CCCN1C(=O)[C@@H]1CCCN1C(=O)[C@H](C)NC(=O)CNC(=O)[C@H](CO)NC(=O)[C@H](CO)NC(=O)[C@@H]1CCCN1C(=O)CNC(=O)CNC(=O)[C@H](C)NC(=O)[C@H](CC(C)C)NC(=O)[C@H](CC(C)C)NC(=O)[C@H](Cc1c[nH]c2ccccc12)NC(=O)[C@H](CC(N)=O)NC(=O)[C@@H](NC(=O)[C@H](Cc1ccccc1)NC(=O)[C@H](CCC(=O)O)NC(=O)C(C)(C)NC(=O)[C@H](C)NC(=O)[C@H](C)NC(=O)[C@H](CCC(N)=O)NC(=O)[C@H](CCCCN)NC(=O)[C@H](CC(=O)O)NC(=O)[C@H](CC(C)C)NC(=O)[C@H](Cc1ccc(O)cc1)NC(=O)[C@@H](NC(=O)[C@H](CO)NC(=O)[C@H](Cc1ccc(O)cc1)NC(=O)[C@H](CC(=O)O)NC(=O)[C@H](CO)NC(=O)[C@@H](NC(=O)[C@H](Cc1ccccc1)NC(=O)[C@@H](NC(=O)CNC(=O)[C@H](CCC(=O)O)NC(=O)CSCC(=O)NCCN1C(=O)C[C@H](CC)C1=O)[C@@H](C)O)[C@@H](C)O)[C@@H](C)CC)C(C)C)C(N)=O)C(=O)O (single isomer, unassigned) [Compound 62]		101%		48%		101%		48%					
CCCCCCCCCCCCCCCC(=O)N[C@@H](CCC(=O)NCCCC[C@H](NC(=O)[C@H](CO)NC(=O)[C@@H]1CCCN1C(=O)[C@@H]1CCCN1C(=O)[C@@H]1CCCN1C(=O)[C@H](C)NC(=O)CNC(=O)[C@H](CO)NC(=O)[C@H](CO)NC(=O)[C@@H]1CCCN1C(=O)CNC(=O)CNC(=O)[C@H](C)NC(=O)[C@H](CC(C)C)NC(=O)[C@H](CC(C)C)NC(=O)[C@H](Cc1c[nH]c2ccccc12)NC(=O)[C@H](CC(N)=O)NC(=O)[C@@H](NC(=O)[C@H](Cc1ccccc1)NC(=O)[C@H](CCC(=O)O)NC(=O)C(C)(C)NC(=O)[C@H](C)NC(=O)[C@H](C)NC(=O)[C@H](CCC(N)=O)NC(=O)[C@H](CCCCN)NC(=O)[C@H](CC(=O)O)NC(=O)[C@H](CC(C)C)NC(=O)[C@H](Cc1ccc(O)cc1)NC(=O)[C@@H](NC(=O)[C@H](CO)NC(=O)[C@H](Cc1ccc(O)cc1)NC(=O)[C@H](CC(=O)O)NC(=O)[C@H](CO)NC(=O)[C@@H](NC(=O)[C@H](Cc1ccccc1)NC(=O)[C@@H](NC(=O)CNC(=O)[C@H](CCC(=O)O)NC(=O)CSCC(=O)NCCN1C(=O)CC[C@H]1C)[C@@H](C)O)[C@@H](C)O)[C@@H](C)CC)C(C)C)C(N)=O)C(=O)O (single isomer, unassigned) [Compound 74]		92%		47%		92%		47%					
CC[C@H](C)[C@H](NC(=O)[C@H](CO)NC(=O)[C@H](Cc1ccc(O)cc1)NC(=O)[C@H](CC(=O)O)NC(=O)[C@H](CO)NC(=O)[C@@H](NC(=O)[C@H](Cc1ccccc1)NC(=O)[C@@H](NC(=O)CNC(=O)[C@H](CCC(=O)O)NC(=O)CCCCCCCCN1C(=O)CSC1=O)[C@@H](C)O)[C@@H](C)O)C(=O)N[C@@H](Cc1ccc(O)cc1)C(=O)N[C@@H](CC(C)C)C(=O)N[C@@H](CC(=O)O)C(=O)N[C@@H](CCCCN)C(=O)N[C@@H](CCC(N)=O)C(=O)N[C@@H](C)C(=O)N[C@@H](C)C(=O)NC(C)(C)C(=O)N[C@@H](CCC(=O)O)C(=O)N[C@@H](Cc1ccccc1)C(=O)N[C@H](C(=O)N[C@@H](CC(N)=O)C(=O)N[C@@H](Cc1c[nH]c2ccccc12)C(=O)N[C@@H](CC(C)C)C(=O)N[C@@H](CC(C)C)C(=O)N[C@@H](C)C(=O)NCC(=O)NCC(=O)N1CCC[C@H]1C(=O)N[C@@H](CO)C(=O)N[C@@H](CO)C(=O)NCC(=O)N[C@@H](C)C(=O)N1CCC[C@H]1C(=O)N1CCC[C@H]1C(=O)N1CCC[C@H]1C(=O)N[C@@H](CO)C(=O)N[C@@H](CCCCN)C(N)=O)C(C)C [Compound 174]		17 to 73%	100 to 1000 nM	30 to 66%		17 to 73%	100 to 1000 nM	30 to 66%	10 to 1000 nM	10 to 1000 nM			
CCCCCCCCCCCCCCCC(=O)N[C@@H](CCC(=O)NCCCC[C@H](NC(=O)[C@H](CO)NC(=O)[C@@H]1CCCN1C(=O)[C@@H]1CCCN1C(=O)[C@@H]1CCCN1C(=O)[C@H](C)NC(=O)CNC(=O)[C@H](CO)NC(=O)[C@H](CO)NC(=O)[C@@H]1CCCN1C(=O)CNC(=O)CNC(=O)[C@H](C)NC(=O)[C@H](CC(C)C)NC(=O)[C@H](CC(C)C)NC(=O)[C@H](Cc1c[nH]c2ccccc12)NC(=O)[C@H](CC(N)=O)NC(=O)[C@@H](NC(=O)[C@H](Cc1ccccc1)NC(=O)[C@H](CCC(=O)O)NC(=O)C(C)(C)NC(=O)[C@H](C)NC(=O)[C@H](C)NC(=O)[C@H](CCC(N)=O)NC(=O)[C@H](CCCCN)NC(=O)[C@H](CC(=O)O)NC(=O)[C@H](CC(C)C)NC(=O)[C@H](Cc1ccc(O)cc1)NC(=O)[C@@H](NC(=O)[C@H](CO)NC(=O)[C@H](Cc1ccc(O)cc1)NC(=O)[C@H](CC(=O)O)NC(=O)[C@H](CO)NC(=O)[C@@H](NC(=O)[C@H](Cc1ccccc1)NC(=O)[C@@H](NC(=O)CNC(=O)[C@H](CCC(=O)O)NC(=O)CSCC(=O)NCCC1=CCCC1)[C@@H](C)O)[C@@H](C)O)[C@@H](C)CC)C(C)C)C(N)=O)C(=O)O [Compound 54]		107%				107%					< 0.1 nM	< 0.1 nM	6%
